Results as given in the supplement of paper PMC11208160.

Test: recombinant barcode read abundance after kanamycin selection (control-corrected) (log10(CPM+1)); higher = more efficient recombination; sequences stand for … in AGTGCAGAGAAAATCGGCCAGTTTTCTCTGCCTGCAGTCCGCATGCCGT…AGATTTATGCAGCGGACTGCCTTTCTCCCAAAGTGATAAACCGGACAGTATCATGGACCGGTTTTCCCGGTAATCCGTATTTGCAAGGTTGGTTTCACT; site = the 11-nt target
Method in brief: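 IS621 bridge RNA target-binding loops were paired with targets in a pooled library tested in E. coli. After co-electroporation with a donor plasmid, cells were plated in two replicates on chloramphenicol/ampicillin LB agar (control) and on chloramphenicol/ampicillin/kanamycin carrying 0.1 mM IPTG. Barcodes at recombinant junctions were counted as counts per million, averaged and control-corrected to give recombination efficiency. Values are log10(CPM+1).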
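Note: IS621 recombinase and bridge RNA in Escherichia coli cells.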

Sequence	recombinant barcode read abundance (log10)
GAGGACTCTTGGGTTCTAACCTGTTGCCC (site GAGGACTCTCG)	0.136
GAGGACTCTTGGGTTCTAACCTGTTGCCC (site GAGGACTCTGG)	2.39
GAGGACTCTTGGGTTCTAACCTGTTGCCC (site GAGGACTCTTG)	0.682
GAGGAGTCTTGGGTTCTAACCTGTTGCCG (site AGAACACCTAA)	0.0129
GAGGAGTCTTGGGTTCTAACCTGTTGCCG (site GAGGAGTCTCG)	1.3
GAGGAGTCTTGGGTTCTAACCTGTTGCCT (site GAGAAGTCTAG)	1.02
GAGGAGTCTTGGGTTCTAACCTGTTGCCT (site GAGCAGTCTAG)	0.0568
GAGGAGTCTTGGGTTCTAACCTGTTGCCT (site GAGGAGTCTAG)	2.55
GAGGAGTCTTGGGTTCTAACCTGTTGCCT (site GAGTAGTCTAG)	0.171
GAGGATCCTTGGGTTCTAACCTGTTGCCT (site GAGGATCCTAG)	2.12
GAGGATCCTTGGGTTCTAACCTGTTGCCT (site GGGGATCCTAG)	0.457
GAGGCAACTTGGGTTCTAACCTGTTGCTT (site CACGCAACTAA)	0
GAGGCAACTTGGGTTCTAACCTGTTGCTT (site GAGGCAACTAA)	0.0561
GAGGCTCCTTGGGTTCTAACCTGTTGCCG (site GAGGCTCCTAG)	0.113
GAGGCTCCTTGGGTTCTAACCTGTTGCCG (site GAGGCTCCTCG)	0.993
GAGGCTCCTTGGGTTCTAACCTGTTGCCG (site GAGGCTCCTGG)	0.138
GAGGCTCCTTGGGTTCTAACCTGTTGCCG (site GAGGCTCCTTG)	0.238
GAGGGTACTTGGGTTCTAACCTGTTGCCT (site GAGCATACTAG)	0.295
GAGGGTACTTGGGTTCTAACCTGTTGCCT (site GAGGGTACTAG)	1.76
GAGGGTTCTTGGGTTCTAACCTGTTGCAT (site GAGGGTGCTAG)	0.528
GAGGGTTCTTGGGTTCTAACCTGTTGCAT (site GAGGGTTCTAT)	2.66
GAGGTAGCTTGGGTTCTAACCTGTTGCCT (site GAGGTAGCTAG)	1.18

Sequence	recombinant barcode read abundance (log10)
GAGGTAGCTTGGGTTCTAACCTGTTGCCT (site GATGTATCTAG)	0.563
GAGGTGCCTTGGGTTCTAACCTGTTGCAG (site ATAACCTCTAG)	0.174
GAGGTGCCTTGGGTTCTAACCTGTTGCAG (site GAGGTGCCTCT)	1.44
GAGTAGTCTTGGGTTCTAACCTGTTGCCT (site GAGAAGTCTAG)	0.0847
GAGTAGTCTTGGGTTCTAACCTGTTGCCT (site GAGCAGTCTAG)	1.27
GAGTAGTCTTGGGTTCTAACCTGTTGCCT (site GAGGAGTCTAG)	0.00957
GAGTAGTCTTGGGTTCTAACCTGTTGCCT (site GAGTAGTCTAG)	2.39
GAGTCTCCTTGGGTTCTAACCTGTTGCGG (site CTTCGGACTAA)	0.187
GAGTCTCCTTGGGTTCTAACCTGTTGCGG (site GAGTCTCCTCC)	0.316
GAGTGAGCTTGGGTTCTAACCTGTTGCAT (site GAGAGAGCTAT)	0.645
GAGTGAGCTTGGGTTCTAACCTGTTGCAT (site GAGCGAGCTAT)	1.95
GAGTGAGCTTGGGTTCTAACCTGTTGCAT (site GAGGGAGCTAT)	0.986
GAGTGAGCTTGGGTTCTAACCTGTTGCAT (site GAGTGAGCTAT)	2.53
GAGTGAGCTTGGGTTCTAACCTGTTGCGT (site GAGCGATCTAC)	0.689
GAGTGAGCTTGGGTTCTAACCTGTTGCGT (site GAGTGAGCTAC)	3
GAGTGCTCTTGGGTTCTAACCTGTTGCGT (site GAGCGCTCTAG)	0.0262
GAGTGCTCTTGGGTTCTAACCTGTTGCGT (site GAGTGCTCTAC)	2.29
GAGTGGCCTTGGGTTCTAACCTGTTGCCT (site GAGTGGCCTAA)	0.316
GAGTGGCCTTGGGTTCTAACCTGTTGCCT (site GAGTGGCCTAC)	0.121
GAGTGGCCTTGGGTTCTAACCTGTTGCCT (site GAGTGGCCTAG)	0.346
GAGTGGCCTTGGGTTCTAACCTGTTGCCT (site GAGTGGCCTAT)	0.182
GAGTGGCCTTGGGTTCTAACCTGTTGCGA (site GAGTGGCCTTC)	2.02

Sequence	recombinant barcode read abundance (log10)
GAGTGGCCTTGGGTTCTAACCTGTTGCGA (site TCCGTATCTCT)	0.0392
GAGTGGCCTTGGGTTCTAACCTGTTGCGT (site GAGTGGCCTAA)	0.314
GAGTGGCCTTGGGTTCTAACCTGTTGCGT (site GAGTGGCCTAC)	2.4
GAGTGGCCTTGGGTTCTAACCTGTTGCGT (site GAGTGGCCTAG)	0.227
GAGTGGCCTTGGGTTCTAACCTGTTGCGT (site GAGTGGCCTAT)	1.32
GAGTTCCCTTGGGTTCTAACCTGTTGCCC (site ATTACTTCTAA)	0.0963
GAGTTCCCTTGGGTTCTAACCTGTTGCCC (site GAGTTCCCTGG)	1.54
GAGTTTCCTTGGGTTCTAACCTGTTGCGT (site GAGTTACCTAC)	0.142
GAGTTTCCTTGGGTTCTAACCTGTTGCGT (site GAGTTCCCTAC)	0.278
GAGTTTCCTTGGGTTCTAACCTGTTGCGT (site GAGTTGCCTAC)	0.0725
GAGTTTCCTTGGGTTCTAACCTGTTGCGT (site GAGTTTCCTAC)	0.791
GATACAGCTTGGGTTCTAACCTGTTGCCT (site GAAACAGCTAG)	0.0665
GATACAGCTTGGGTTCTAACCTGTTGCCT (site GACACAGCTAG)	0.444
GATACAGCTTGGGTTCTAACCTGTTGCCT (site GAGACAGCTAG)	0.155
GATACAGCTTGGGTTCTAACCTGTTGCCT (site GATACAGCTAG)	1.16
GATACGACTTGGGTTCTAACCTGTTGCCT (site GATACGACTAG)	1.14
GATACGACTTGGGTTCTAACCTGTTGCCT (site GATACGCCTAG)	0.748
GATACGACTTGGGTTCTAACCTGTTGCCT (site GATACGGCTAG)	0.0662
GATACGACTTGGGTTCTAACCTGTTGCCT (site GATACGTCTAG)	0.00976
GATACTACTTGGGTTCTAACCTGTTGCAG (site GATACTACTCT)	0.17
GATACTACTTGGGTTCTAACCTGTTGCAG (site GATGCTACTCT)	0.11
GATAGACCTTGGGTTCTAACCTGTTGCCT (site CATAGACCTAG)	0.126

Sequence	recombinant barcode read abundance (log10)
GATAGACCTTGGGTTCTAACCTGTTGCCT (site GATAGACCTAG)	1.57
GATAGCTCTTGGGTTCTAACCTGTTGCCT (site AATAGCTCTAG)	0.332
GATAGCTCTTGGGTTCTAACCTGTTGCCT (site CATAGCTCTAG)	0.0838
GATAGCTCTTGGGTTCTAACCTGTTGCCT (site GATAGCTCTAG)	0.998
GATAGCTCTTGGGTTCTAACCTGTTGCCT (site TATAGCTCTAG)	0.509
GATAGGGCTTGGGTTCTAACCTGTTGCCT (site GATAGGGCTAG)	1.09
GATAGGGCTTGGGTTCTAACCTGTTGCCT (site TTATACACTGA)	0.135
GATCAGCCTTGGGTTCTAACCTGTTGCCT (site GATCAGCCTAG)	0.445
GATCAGCCTTGGGTTCTAACCTGTTGCCT (site GATCTGCCTAG)	0.063
GATCCTACTTGGGTTCTAACCTGTTGCCA (site GATCCTACTTG)	0.315
GATCCTACTTGGGTTCTAACCTGTTGCCA (site GATGCTACTTG)	0.0449
GATCGAACTTGGGTTCTAACCTGTTGCCT (site AATCGAACTAG)	0.15
GATCGAACTTGGGTTCTAACCTGTTGCCT (site GATCGAACTAG)	0.204
GATCGAGCTTGGGTTCTAACCTGTTGCAG (site GATCGAGCTCT)	1.42
GATCGAGCTTGGGTTCTAACCTGTTGCAG (site TGGACGACTAA)	0.178
GATCGAGCTTGGGTTCTAACCTGTTGCCT (site GATCGAGCTAG)	1.12
GATCGAGCTTGGGTTCTAACCTGTTGCCT (site GATCGCGCTAG)	0
GATCGCGCTTGGGTTCTAACCTGTTGCCT (site GATCGAGCTAG)	0.133
GATCGCGCTTGGGTTCTAACCTGTTGCCT (site GATCGCGCTAG)	0.231
GATCTAGCTTGGGTTCTAACCTGTTGCAT (site CATATAGCTAT)	0.0793
